Results from publication PMC4084896 (PLoS ONE, 2014).
Like-named read-outs stand apart in the source and are kept apart here.

What was measured:
AZ-AHR cells = experiment: MTT cytotoxicity test in AZ-AHR cells; assay type: cell-based, human; details: 24 h incubation, six passages; read-out: AZ-AHR viability - MTT IC50
Excerpt: (§1) A stably transfected gene reporter cell line AZ-AHR, derived from human hepatoma HepG2 cells transfected with a construct containing several AhR binding sites upstream of a luciferase reporter gene, was used for assessment of AhR transcriptional activity. A stably transfected gene reporter cell line AZ-GR, derived from human cervix carcinoma HeLa cells transfected with a construct containing several GR response elements upstream of a luciferase reporter gene, was used for assessment of GR transcriptional activity. Cells were incubated for 24 h with tested compounds and/or vehicle (DMSO; 0.1% v/v), in the presence or absence of TCDD (5 nM; AZ-AHR cells) or DEX (100 nM; AZ-GR cells). After the treatments, cells were lysed and luciferase activity was measured. In parallel, cell viability was determined by conventional MTT test.
(§2) Prior to the agonist or antagonist experiments, the cytotoxicity of tested compounds was assessed using the conventional MTT assay. […] The vehicle was DMSO (0.1% v/v). After the treatment, a MTT test was performed.

[1] = biological target: T1, aryl hydrocarbon receptor AhR (Homo sapiens, UniProt P35869); experiment: AhR gene reporter assay in AZ-AHR cells, agonist mode; assay type: cell-based; details: for EC50: 24 h, agonist mode
T1 construct: endogenous in cells; host or cells: AZ-AHR (stably transfected reporter line derived from HepG2)
T1 sequence (P35869 11-848): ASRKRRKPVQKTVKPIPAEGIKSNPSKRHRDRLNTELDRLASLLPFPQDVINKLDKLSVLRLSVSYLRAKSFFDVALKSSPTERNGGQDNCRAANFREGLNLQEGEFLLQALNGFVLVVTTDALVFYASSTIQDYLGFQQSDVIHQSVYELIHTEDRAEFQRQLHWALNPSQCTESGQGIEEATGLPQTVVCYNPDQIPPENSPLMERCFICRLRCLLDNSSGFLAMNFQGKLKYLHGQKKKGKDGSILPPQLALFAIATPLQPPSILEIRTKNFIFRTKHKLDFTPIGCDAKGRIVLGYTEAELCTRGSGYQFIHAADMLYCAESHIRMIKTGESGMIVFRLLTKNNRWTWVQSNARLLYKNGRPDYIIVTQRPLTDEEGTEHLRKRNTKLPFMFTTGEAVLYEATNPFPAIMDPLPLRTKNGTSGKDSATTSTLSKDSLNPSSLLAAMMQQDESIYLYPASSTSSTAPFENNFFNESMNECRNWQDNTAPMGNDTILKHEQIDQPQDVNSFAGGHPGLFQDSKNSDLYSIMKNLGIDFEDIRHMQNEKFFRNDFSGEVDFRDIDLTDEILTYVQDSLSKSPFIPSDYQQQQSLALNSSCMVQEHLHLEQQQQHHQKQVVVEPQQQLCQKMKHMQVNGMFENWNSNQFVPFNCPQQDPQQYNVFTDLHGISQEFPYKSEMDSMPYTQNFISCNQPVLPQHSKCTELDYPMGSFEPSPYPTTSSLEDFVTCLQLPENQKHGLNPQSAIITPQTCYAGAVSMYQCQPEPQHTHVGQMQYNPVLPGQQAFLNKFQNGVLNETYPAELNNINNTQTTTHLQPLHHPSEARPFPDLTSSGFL
Excerpt: as §1
Gene reporter assays were performed in two different experimental layouts. In agonist mode, cells were treated with increasing concentrations of tested compounds, and the half-maximal effective concentrations (EC50) were calculated.

[2] = tested on: primary human hepatocytes; experiment: MTT cytotoxicity test in primary human hepatocytes; assay type: cell-based; details: 50 µM, 24 h
Excerpt: as §1
(§3) The cells were treated for 24 h with (+)-KET, (−)-KET and commercial rac-KET (1 µM, 30 µM, 50 µM), and with TCDD (5 nM) and vehicle (DMSO; 0.1% V/V). […] In the cytotoxicity assay, we found all forms of KET highly toxic against human hepatocytes at the concentration 50 µM.

AhR = biological target: T2, AhR (Mus musculus, UniProt P30561); experiment: EMSA with nuclear extracts from Hepa-1c1c7 cells (AhR-ARNT-DRE complex); assay type: cell-based; details: Hepa-1c1c7 nuclear extracts, 50 µM, 2 h
T2 construct: endogenous in cells; host or cells: mouse hepatoma Hepa-1c1c7 cells (living cells treated 2 h, then nuclear extracts made)
T2 sequence (P30561 10-805 limits assumed): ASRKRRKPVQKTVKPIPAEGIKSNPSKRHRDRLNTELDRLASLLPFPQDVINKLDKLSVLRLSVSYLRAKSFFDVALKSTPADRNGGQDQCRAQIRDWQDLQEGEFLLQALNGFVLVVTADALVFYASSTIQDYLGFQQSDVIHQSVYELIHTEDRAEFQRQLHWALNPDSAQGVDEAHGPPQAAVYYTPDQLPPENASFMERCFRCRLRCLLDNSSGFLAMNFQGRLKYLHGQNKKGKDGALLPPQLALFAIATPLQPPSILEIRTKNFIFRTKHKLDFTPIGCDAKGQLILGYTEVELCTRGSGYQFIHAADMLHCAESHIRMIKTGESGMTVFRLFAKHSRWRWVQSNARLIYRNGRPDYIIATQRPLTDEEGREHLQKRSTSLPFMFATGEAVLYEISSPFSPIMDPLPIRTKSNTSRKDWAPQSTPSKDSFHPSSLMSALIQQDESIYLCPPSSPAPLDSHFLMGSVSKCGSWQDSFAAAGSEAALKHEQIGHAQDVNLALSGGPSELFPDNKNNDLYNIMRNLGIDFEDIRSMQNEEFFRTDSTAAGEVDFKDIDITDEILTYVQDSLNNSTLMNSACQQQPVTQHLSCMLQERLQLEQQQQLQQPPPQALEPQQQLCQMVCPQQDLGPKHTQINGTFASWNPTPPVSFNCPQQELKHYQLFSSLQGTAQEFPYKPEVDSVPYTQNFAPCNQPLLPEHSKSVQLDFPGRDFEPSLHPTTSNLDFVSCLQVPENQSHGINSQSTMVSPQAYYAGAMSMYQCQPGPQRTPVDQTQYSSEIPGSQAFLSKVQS
T2 sequence (P53762 whole entry partner): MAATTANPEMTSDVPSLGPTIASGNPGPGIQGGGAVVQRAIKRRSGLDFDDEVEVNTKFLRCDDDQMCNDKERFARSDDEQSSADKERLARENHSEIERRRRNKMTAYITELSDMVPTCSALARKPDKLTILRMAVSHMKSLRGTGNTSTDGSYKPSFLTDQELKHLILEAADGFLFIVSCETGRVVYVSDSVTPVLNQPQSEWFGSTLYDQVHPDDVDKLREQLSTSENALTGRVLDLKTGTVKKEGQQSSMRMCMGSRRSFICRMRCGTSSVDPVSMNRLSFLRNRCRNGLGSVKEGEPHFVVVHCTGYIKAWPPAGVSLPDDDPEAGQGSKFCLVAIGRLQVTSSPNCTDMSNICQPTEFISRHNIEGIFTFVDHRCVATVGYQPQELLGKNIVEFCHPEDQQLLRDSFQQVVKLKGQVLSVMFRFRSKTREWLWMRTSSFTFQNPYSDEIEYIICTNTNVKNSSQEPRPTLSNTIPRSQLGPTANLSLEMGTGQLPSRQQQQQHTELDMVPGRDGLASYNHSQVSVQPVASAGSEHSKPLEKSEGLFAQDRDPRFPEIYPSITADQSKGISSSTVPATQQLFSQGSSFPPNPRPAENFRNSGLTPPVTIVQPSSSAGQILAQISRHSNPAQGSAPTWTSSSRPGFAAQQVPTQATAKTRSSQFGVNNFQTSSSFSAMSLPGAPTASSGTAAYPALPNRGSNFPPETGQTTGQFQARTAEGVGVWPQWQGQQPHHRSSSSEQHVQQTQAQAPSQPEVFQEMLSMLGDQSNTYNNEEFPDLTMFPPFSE
Procedure: Electrophoretic mobility shift assay was performed in guinea pig cytosol and nuclear extract from mouse hepatoma cells. Hepa-1c1c7 cells were incubated for 2 h with tested compounds. Nuclear extracts procedure and EMSA analysis was performed as previously described (Soshilov & Denison; 2014). Guinea pig hepatic cytosol (8 mg/mL in HEDG) was incubated for 2 h in a room temperature water bath with tested compounds. An aliquot of the reaction was mixed with poly[dI•dC] and [^32P]-DRE (100.000 cpm), and AHR:DRE:[^32P]DRE complexes were resolved by gel retardation analysis, visualized by autoradiography and quantified by phosphorimager analysis (FujiFilm) of the dried gels.
We carried out the electrophoretic mobility shift assay (EMSA) to reveal whether effects of KET on AhR-CYP1A pathway involve transformation of AhR to DNA binding form, and whether these effects are enantiospecific. For this purpose, EMSA was performed in two experimental systems: (i) Hepatic guinea pig cytosol was treated for 2 hours with DMSO, 20 nM TCDD, (+)-KET, (−)-KET and commercial rac-KET (from Sigma) at 10 µM, 30 µM and 50 µM. All forms of KET transformed AhR to DNA binding form, but the activation was very weak and not statistically above background. There was a slightly stronger effect of (+)-KET and rac-KET as compared to (−)-KET, but the difference was not significant (Figure 4A). (ii) Since we obtained only weak signals in guinea pig liver cytosols, we also analyzed nuclear extracts from mouse hepatoma Hepa-1c1c7 cells treated for 2 hours with DMSO, TCDD (10 nM), (+)-KET (50 µM), (−)-KET (50 µM), commercial rac-KET (Sigma; 50 µM) or an equimolar mix of (+)/(−) enantiomers (50 µM total). […] The effects of (−)-KET were slightly stronger as compared to (+)-KET. […] In addition, we observed formation of the second band with lower molecular weight than AhR-ARNT-DRE, by purified KET enantiomers but not by TCDD and commercial KET.

AZ-GR cells = experiment: MTT cytotoxicity test in AZ-GR cells; assay type: cell-based, human; details: 24 h incubation, read-out: AZ-GR viability - MTT IC50
Excerpt: as §1
There is multiple evidence for the role of glucocorticoid receptor (GR) in regulation of AhR activity. […] Gene reporter assays were performed in agonist and antagonist mode (similarly as described in section 3.1.).

[3] = MTT cytotoxicity test in AZ-AHR cells; assay type: cell-based, human; details: human; 24 h incubation, six passages; read-out: AZ-AHR viability - MTT IC50
Excerpt: as §1, §2

[4] = MTT cytotoxicity test in primary human hepatocytes; assay type: cell-based; details: primary human hepatocytes, read-out: viability, % of control value
Excerpt: as §1, §3

Row | Compound | IC50 (AZ-AHR cells) [µM] | EC50 [1] [µM] | AZ-AHR gene reporter - agonist efficacy ([1]; average value printed in Figure 1B, relative to TCDD) | viability, % of control value [2] [%] | transformation of AhR to DNA binding form (in words) (AhR) | IC50 (AZ-GR cells) [µM] | IC50 at 24 h [3] [µM] | AZ-AHR gene reporter - agonist efficacy [1] | viability at 24 h, 50 µM [4] [%] | formation of AhR-ARNT-DRE complex, % of TCDD effects (AhR; TCDD 10 nM) | IC50 (AZ-GR cells; Homo sapiens) [µM]
1 | CC(=O)N1CCN(c2ccc(OC[C@H]3CO[C@](Cn4ccnc4)(c4ccc(Cl)cc4Cl)O3)cc2)CC1 [(+)-KET, (2R,4S)-(+)-KET] | 77.3 ± 23.9 | 3.2 | 23,5 ± 12,2% | 15 | only weakly transformed | 82.6 ± 23.7 | – | – | – | – | –
2 | CC(=O)N1CCN(c2ccc(OCC3COC(Cn4ccnc4)(c4ccc(Cl)cc4Cl)O3)cc2)CC1 (racemic) [rac-KET, ketoconazole] | – | 5.2 | – | – | – | – | 67.2 ± 24.8 | 15,4 ± 9,4% | 46 | approx. 60% | > 100
